Test results: PubChem BioAssay AID2060612 (Molecular Pharmacology Branch, DTP, NCI, 2025)

Test system: 565232-114-T-J1-PDC complex spheroid viability
Assay: Anticancer human tumor 565232-114-T-J1-PDC patient-derived bladder carcinoma cell line growth inhibition [CLK]
Details: for IC50: curve of first compound; for viability, T/C: stronger effect = lower value; active means viability on the fitted dose curve at most 10% of control; inactive means the rest
In short: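 Patient-derived tumor cells grown as complex spheroids with HUVEC endothelial cells and mesenchymal stem cells, treated with drug combinations. Concentrations descend in half-log steps from near clinical Cmax, or from 10 microM if Cmax unknown.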

[1] = second compound 0.0316 µM, first compound 0.0316 µM
[2] = second compound 0.0316 µM, first compound 0.1 µM
[3] = second compound 0.1 µM, first compound 0.0316 µM
[4] = second compound 0.1 µM, first compound 0.1 µM
[5] = second compound 0.316 µM, first compound 0.0316 µM
[6] = second compound 0.316 µM, first compound 0.1 µM
[7] = second compound 1 µM, first compound 0.0316 µM
[8] = second compound 1 µM, first compound 0.1 µM
[9] = second compound 3.16 µM, first compound 0.0316 µM
[10] = second compound 3.16 µM, first compound 0.1 µM
[11] = second compound 10 µM, first compound 0.0316 µM
[12] = second compound 10 µM, first compound 0.1 µM
[13] = second compound 0.0316 µM, first compound 0.316 µM
[14] = second compound 0.0316 µM, first compound 1 µM
[15] = second compound 0.0316 µM, first compound 3.16 µM
[16] = second compound 0.0316 µM, first compound 10 µM
[17] = second compound 0.1 µM, first compound 0.316 µM
[18] = second compound 0.1 µM, first compound 1 µM
[19] = second compound 0.1 µM, first compound 3.16 µM
[20] = second compound 0.1 µM, first compound 10 µM
[21] = second compound 0.316 µM, first compound 0.316 µM
[22] = second compound 0.316 µM, first compound 1 µM
[23] = second compound 0.316 µM, first compound 3.16 µM
[24] = second compound 0.316 µM, first compound 10 µM
[25] = second compound 1 µM, first compound 0.316 µM
[26] = second compound 1 µM, first compound 1 µM
[27] = second compound 1 µM, first compound 3.16 µM
[28] = second compound 1 µM, first compound 10 µM
[29] = second compound 3.16 µM, first compound 0.316 µM
[30] = second compound 3.16 µM, first compound 1 µM
[31] = second compound 3.16 µM, first compound 3.16 µM
[32] = second compound 3.16 µM, first compound 10 µM
[33] = second compound 10 µM, first compound 0.316 µM
[34] = second compound 10 µM, first compound 1 µM
[35] = second compound 10 µM, first compound 3.16 µM
[36] = second compound 10 µM, first compound 10 µM
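Further: spheroids exposed to compounds for 7 days before readout.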
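Wherever viability, T/C is given: 100% = DMSO vehicle wells with luminescence normalized to vehicle control.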

Cn1ncnc1[C@H]1c2n[nH]c(=O)c3cc(F)cc(c23)N[C@@H]1c1ccc(F)cc1 + CNC(=O)c1ccc(Nc2nc(OC3CCCC3)c3c(-c4ccc5nc(C)oc5c4)c[nH]c3n2)c(OC)c1
< 0.316 nM: IC50 (second compound 0.1 µM) | IC50 (second compound 0.316 µM) | IC50 (second compound 1 µM) | IC50 (second compound 3.16 µM) | IC50 (second compound 10 µM)
inactive: viability, T/C (second compound 0.0316 µM, first compound 0.000316 µM) 107% | viability, T/C (second compound 0.0316 µM, first compound 0.001 µM) 81.8% | viability, T/C (second compound 0.0316 µM, first compound 0.00316 µM) 94.9% | viability, T/C (second compound 0.0316 µM, first compound 0.01 µM) 95% | viability, T/C [1] 84.8% | viability, T/C [2] 53.2% | viability, T/C (second compound 0.1 µM, first compound 0.000316 µM) 50% | viability, T/C (second compound 0.1 µM, first compound 0.001 µM) 44.4% | viability, T/C (second compound 0.1 µM, first compound 0.00316 µM) 53.3% | viability, T/C (second compound 0.1 µM, first compound 0.01 µM) 43.6% | viability, T/C [3] 34.7% | viability, T/C [4] 23.3% | viability, T/C (second compound 0.316 µM, first compound 0.000316 µM) 31.4% | viability, T/C (second compound 0.316 µM, first compound 0.001 µM) 29.8% | viability, T/C (second compound 0.316 µM, first compound 0.00316 µM) 30.4% | viability, T/C (second compound 0.316 µM, first compound 0.01 µM) 26.4% | viability, T/C [5] 25.7% | viability, T/C [6] 15.4% | viability, T/C (second compound 1 µM, first compound 0.000316 µM) 21.9% | viability, T/C (second compound 1 µM, first compound 0.001 µM) 22.3% | viability, T/C (second compound 1 µM, first compound 0.00316 µM) 20% | viability, T/C (second compound 1 µM, first compound 0.01 µM) 16.9% | viability, T/C [7] 22.2% | viability, T/C [8] 15.7% | viability, T/C (second compound 3.16 µM, first compound 0.000316 µM) 12.3% | viability, T/C (second compound 3.16 µM, first compound 0.001 µM) 20.6% | viability, T/C (second compound 3.16 µM, first compound 0.00316 µM) 18.7% | viability, T/C (second compound 3.16 µM, first compound 0.01 µM) 16.4% | viability, T/C [9] 20.2% | viability, T/C [10] 12.4% | viability, T/C (second compound 10 µM, first compound 0.000316 µM) 20.4% | viability, T/C (second compound 10 µM, first compound 0.001 µM) 16.1% | viability, T/C (second compound 10 µM, first compound 0.00316 µM) 20.3% | viability, T/C (second compound 10 µM, first compound 0.01 µM) 19.5% | viability, T/C [11] 17.8% | viability, T/C [12] 11.4%
> 100 nM: IC50 (second compound 0.0316 µM)

Nc1ccn(C2OC(CO)C(O)C2(F)F)c(=O)n1 (stereo unspecified) + CNC(=O)c1ccc(Nc2nc(OC3CCCC3)c3c(-c4ccc5nc(C)oc5c4)c[nH]c3n2)c(OC)c1
36 nM: IC50 (second compound 0.0316 µM)
< 31.6 nM: IC50 (second compound 0.1 µM) | IC50 (second compound 0.316 µM) | IC50 (second compound 1 µM) | IC50 (second compound 3.16 µM) | IC50 (second compound 10 µM)
inactive: viability, T/C [1] 54.3% | viability, T/C [2] 18.6% | viability, T/C [13] 8.71% | viability, T/C [14] 7.4% | viability, T/C [15] 11.2% | viability, T/C [16] 13.6% | viability, T/C [3] 35.7% | viability, T/C [4] 22% | viability, T/C [17] 8.15% | viability, T/C [18] 9.21% | viability, T/C [19] 13.3% | viability, T/C [20] 11.8% | viability, T/C [5] 26.2% | viability, T/C [6] 19.5% | viability, T/C [21] 8.41% | viability, T/C [22] 7.45% | viability, T/C [23] 12.3% | viability, T/C [7] 16.9% | viability, T/C [8] 14.9% | viability, T/C [25] 8.75% | viability, T/C [9] 19.3% | viability, T/C [10] 14.5% | viability, T/C [11] 17.7% | viability, T/C [12] 13.9%
active: viability, T/C [24] 12.2% | viability, T/C [26] 7.6% | viability, T/C [27] 9.48% | viability, T/C [28] 8.93% | viability, T/C [29] 5.99% | viability, T/C [30] 5.99% | viability, T/C [31] 6.76% | viability, T/C [32] 6.01% | viability, T/C [33] 6.66% | viability, T/C [34] 6.31% | viability, T/C [35] 6.89% | viability, T/C [36] 5.15%

O=C(c1cc(Cc2n[nH]c(=O)c3ccccc23)ccc1F)N1CCN(C(=O)C2CC2)CC1 + CNC(=O)c1ccc(Nc2nc(OC3CCCC3)c3c(-c4ccc5nc(C)oc5c4)c[nH]c3n2)c(OC)c1
1500 nM: IC50 (second compound 0.1 µM)
< 31.6 nM: IC50 (second compound 0.316 µM) | IC50 (second compound 1 µM) | IC50 (second compound 3.16 µM) | IC50 (second compound 10 µM)
> 10000 nM: IC50 (second compound 0.0316 µM)
inactive: viability, T/C [1] 81.7% | viability, T/C [2] 85.9% | viability, T/C [13] 87.8% | viability, T/C [14] 82.8% | viability, T/C [15] 104% | viability, T/C [16] 64.8% | viability, T/C [3] 49% | viability, T/C [4] 52.6% | viability, T/C [17] 63.5% | viability, T/C [18] 48.8% | viability, T/C [19] 45.7% | viability, T/C [20] 34% | viability, T/C [5] 36.4% | viability, T/C [6] 40.3% | viability, T/C [21] 30.4% | viability, T/C [22] 32.4% | viability, T/C [23] 33.4% | viability, T/C [24] 30.2% | viability, T/C [7] 24% | viability, T/C [8] 26.8% | viability, T/C [25] 23.2% | viability, T/C [26] 22.8% | viability, T/C [27] 27.1% | viability, T/C [28] 24.8% | viability, T/C [9] 22.5% | viability, T/C [10] 23.4% | viability, T/C [29] 21.3% | viability, T/C [30] 21.7% | viability, T/C [31] 22.4% | viability, T/C [32] 19.3% | viability, T/C [11] 23.2% | viability, T/C [12] 25.5% | viability, T/C [33] 16.5% | viability, T/C [34] 22.3% | viability, T/C [35] 21% | viability, T/C [36] 18.2%
